From patent US7863269B2, “Imino-imidazo-pyridine derivatives having antithrombotic activity” (sanofi-aventis, priority 2006, dated 2011)

Target: T1, PAR1 (Homo sapiens, UniProt P25116)
T1 construct: endogenous in cells; host or cells: washed platelets from platelet-rich plasma of healthy volunteers
T1 sequence (P25116 22-425): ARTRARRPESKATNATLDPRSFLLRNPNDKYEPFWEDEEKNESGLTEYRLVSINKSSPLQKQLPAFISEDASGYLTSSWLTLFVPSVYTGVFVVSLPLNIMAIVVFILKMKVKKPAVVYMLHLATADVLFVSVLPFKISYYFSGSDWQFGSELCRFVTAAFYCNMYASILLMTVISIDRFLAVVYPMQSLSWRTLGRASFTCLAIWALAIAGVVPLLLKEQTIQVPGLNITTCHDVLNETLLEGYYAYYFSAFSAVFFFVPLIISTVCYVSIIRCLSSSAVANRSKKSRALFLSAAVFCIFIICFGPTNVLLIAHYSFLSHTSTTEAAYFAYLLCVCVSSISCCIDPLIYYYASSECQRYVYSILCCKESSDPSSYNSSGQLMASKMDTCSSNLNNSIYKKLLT
Experiment: Inhibition of PAR1-mediated platelet aggregation induced by TRAP (96-well format)
Type: cell-based
Settings: washed platelets from blood of healthy volunteers; agonist TRAP (thrombin-receptor activating peptide) solution 70-100 μM; AUC at 650 nm, 37° C., 20 minutes
Method: PAR 1 determination method: Inhibition of PAR1-mediated platelet aggregation The pharmacological testing of the substances was carried out in the platelet aggregation induced by TRAP (thrombin-receptor activating peptide) in a 96-well format. To this end, blood from healthy volunteers was taken in 20 ml syringes into which 2 ml of 3.13% strength sodium citrate solution was initially introduced. After a 20-minute centrifugation at 150×g, the platelet-rich plasma (PRP) was separated off and treated with 1 μl of PGE1 solution (500 μg/ml in ethanol)/ml of PRP. After incubation at RT for 5 minutes, this was centrifuged at 120×g for 15 minutes in order to remove the leucocytes. The leucocyte-free PRP was transferred to 15 ml PP tubes in 5 ml portions and centrifuged off at 360×g for 15 minutes in order to pellet the platelets. Subsequently, the plasma was decanted and the platelet sediment from 5 ml of PRP was resuspended in 1 ml of Tyrode (120 mM NaCl, 2.6 mM KCl, 12 mM NaHCO3, 0.39 mM NaH2PO4×H2O, 10 mM HEPES, 0.35% BSA, 5.5 mM glucose, pH 7.4) and adjusted with Tyrode to a platelet count of 3×10^5/microliter (μl). 13 ml of this cell suspension were then treated with 866 μl of 10 mM CaCl2 solution and 120 μl thereof per well were pipetted to a 96-well plate, in which 15 μl of the substance to be tested were initially introduced. After incubation in the dark at RT for 30 minutes, 15 μl of a TRAP solution (70-100 μM) were added as the agonist and kinetics were recorded with shaking at 37° C. for 20 minutes in a SpectraMax 340 at 650 nm. The areas under the curves of negative control (Tyrode/DMSO) and positive control (15 μl of agonist/DMSO) were calculated and the difference was defined as the 100% value. The substances to be tested were pipetted as a dilution series in a duplicate determination, likewise the AUC of each substance concentration was determined and the % inhibition of the AUC against the control was calculated. By means of the % inhibition, the IC50 was calculated with the aid of a nonlinear regression analysis according to the 4 parameter equation.

| SMILES | IC50 [nM] |
| --- | --- |
| CCOc1cc2cn(CC(=O)c3cc(N4CCOCC4)c(OC)c(C(C)(C)C)c3)c(=N)n2cc1C(=O)NC [Example 19, 2-[2-(3-tert-Butyl-4-methoxy-5-morpholin-4-ylphenyl)-2-oxoethyl]-7-ethoxy-3-imino-2,3-dihydroimidazo[1,5-a]pyridine-6-carboxylic acid Methylamide] | 900 |
| N=c1n(CC(=O)c2cccc(S(F)(F)(F)(F)F)c2)cc2ccccn12 [Example 2, 2-(3-Iminoimidazo[1,5-a]pyridin-2-yl)-1-(3-pentafluorosulfanylphenyl)ethanone] | 13000 |
| CCOc1ccc2n(c1=O)C(=N)N(CC(=O)c1cc(N3CCOCC3)c(OC)c(C(C)(C)C)c1)C2 [Example 18, 2-[2-(3-tert-Butyl-4-methoxy-5-morpholin-4-ylphenyl)-2-oxoethyl]-6-ethoxy-3-imino-2,3-dihydro-1H-imidazo[1,5-a]pyridin-5-one] | 9500 |

The next molecules have a lower IC50 than those just listed; values first:

| IC50 [nM] | SMILES |
| --- | --- |
| 510 | COC(=O)c1ccc2cn(CC(=O)c3cc(N4CCOCC4)c(OC)c(C(C)(C)C)c3)c(=N)n2c1 [Example 8, Methyl 2-[2-(3-tert-butyl-4-methoxy-5-morpholin-4-ylphenyl)-2-oxoethyl]-3-imino-2,3-dihydroimidazo[1,5-a]pyridine-6-carboxylate] |
| 20 | CCOc1cc2cn(CC(=O)c3cc4c(c(C(C)(C)C)c3)OCCN4C)c(=N)n2cc1C(=O)NC [Example 12, 2-[2-(8-tert-Butyl-4-methyl-3,4-dihydro-2H-benzo[1,4]oxazin-6-yl)-2-oxoethyl]-7-ethoxy-3-imino-2,3-dihydroimidazo[1,5-a]pyridine-6-carboxylic acid methylamide] |
| 70 | CCOC(=O)c1cc(OC)n2c(=N)n(CC(=O)c3cc(N4CCOCC4)c(OC)c(C(C)(C)C)c3)cc2c1 [Example 20, Ethyl 2-[2-(3-tert-butyl-4-methoxy-5-morpholin-4-ylphenyl)-2-oxoethyl]-3-imino-5-methoxy-2,3-dihydroimidazo[1,5-a]pyridine-7-carboxylate] |
| 850 | CC(C)(C)c1cc(C(=O)Cn2c(C3CC3)c3ccccn3c2=N)cc(C(C)(C)C)c1O [Example 3, 2-(1-Cyclopropyl-3-iminoimidazo[1,5-a]pyridin-2-yl)-1-(3,5-di-tert-butyl-4-hydroxyphenyl)ethanone] |
| 730 | CC(C)(C)c1cc(C(=O)Cn2cc3cc(C(F)(F)F)ccn3c2=N)cc(C(C)(C)C)c1O [Example 6b, 1-(3,5-Di-tert-butyl-4-hydroxyphenyl)-2-(3-imino-7-trifluoromethylimidazo[1,5-a]pyridin-2-yl)ethanone] |
